ChEMBL document CHEMBL3864184, “Optimization of Highly Kinase Selective Bis-anilino Pyrimidine PAK1 Inhibitors” (ACS Med Chem Lett, 2016)
Activity calls are given as the source filed them. No cut-off for these calls is given here.

How the values were obtained:
[1] = Distribution coefficient, logD of the compound; type: physicochemical; conditions: octanol/water
[2] = target: T1, Tyrosine-protein kinase Lck (Homo sapiens, UniProt P06239); assay: Inhibition of N-terminal 6His-tagged full length recombinant human LCK expressed in baculovirus expression system
Target sequence in this assay (P06239 whole entry): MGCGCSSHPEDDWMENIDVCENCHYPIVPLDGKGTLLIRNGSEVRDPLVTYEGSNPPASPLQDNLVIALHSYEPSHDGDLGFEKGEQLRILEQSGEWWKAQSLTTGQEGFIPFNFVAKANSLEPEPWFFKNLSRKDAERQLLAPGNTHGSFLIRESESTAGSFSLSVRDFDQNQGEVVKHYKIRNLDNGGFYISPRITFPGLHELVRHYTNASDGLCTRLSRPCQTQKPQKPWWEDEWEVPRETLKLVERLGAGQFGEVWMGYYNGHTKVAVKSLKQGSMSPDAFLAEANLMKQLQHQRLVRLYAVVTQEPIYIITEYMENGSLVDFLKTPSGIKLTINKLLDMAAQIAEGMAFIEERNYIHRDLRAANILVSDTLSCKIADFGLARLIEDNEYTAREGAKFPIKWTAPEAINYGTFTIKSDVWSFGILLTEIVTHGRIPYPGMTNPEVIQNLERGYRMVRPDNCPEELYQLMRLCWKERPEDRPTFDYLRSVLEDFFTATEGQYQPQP

Homo sapiens = species: Homo sapiens; assay: Activity at CaV-L (unknown origin) at <1 uM
[3] = Intrinsic clearance in rat hepatocytes assessed per million cells; type: ADME, cell-based, Hepatocyte; conditions: read-out: CLH
[4] = target: T2, Protein kinase C theta type (Homo sapiens, UniProt Q04759); assay: Inhibition of human PKCtheta at 100 nM
Target sequence in this assay (Q04759 whole entry, looked up): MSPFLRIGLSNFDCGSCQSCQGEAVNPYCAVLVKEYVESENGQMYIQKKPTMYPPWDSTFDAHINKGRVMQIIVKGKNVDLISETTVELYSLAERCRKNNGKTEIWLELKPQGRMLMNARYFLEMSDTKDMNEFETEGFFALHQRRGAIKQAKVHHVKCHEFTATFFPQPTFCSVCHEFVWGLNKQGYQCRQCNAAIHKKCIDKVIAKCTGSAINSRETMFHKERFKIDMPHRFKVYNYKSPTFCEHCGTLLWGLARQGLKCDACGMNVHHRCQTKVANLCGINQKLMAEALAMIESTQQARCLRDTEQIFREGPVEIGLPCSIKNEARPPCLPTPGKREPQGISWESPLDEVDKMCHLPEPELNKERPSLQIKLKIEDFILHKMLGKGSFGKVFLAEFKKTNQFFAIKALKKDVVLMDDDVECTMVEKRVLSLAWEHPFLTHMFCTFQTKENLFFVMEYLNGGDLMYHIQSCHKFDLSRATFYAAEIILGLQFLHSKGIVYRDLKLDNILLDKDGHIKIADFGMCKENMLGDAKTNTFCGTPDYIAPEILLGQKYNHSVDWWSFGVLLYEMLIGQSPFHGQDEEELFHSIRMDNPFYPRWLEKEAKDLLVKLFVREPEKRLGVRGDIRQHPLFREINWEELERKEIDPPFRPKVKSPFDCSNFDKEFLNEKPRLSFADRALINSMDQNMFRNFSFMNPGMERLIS

[5] = target: T3, Tyrosine-protein kinase Fyn (Homo sapiens, UniProt P06241); assay: Inhibition of N-Terminal His6-tagged full length recombinant human FYN expressed in baculovirus expression system at 100 nM
Target sequence in this assay (P06241 2-537 limits assumed): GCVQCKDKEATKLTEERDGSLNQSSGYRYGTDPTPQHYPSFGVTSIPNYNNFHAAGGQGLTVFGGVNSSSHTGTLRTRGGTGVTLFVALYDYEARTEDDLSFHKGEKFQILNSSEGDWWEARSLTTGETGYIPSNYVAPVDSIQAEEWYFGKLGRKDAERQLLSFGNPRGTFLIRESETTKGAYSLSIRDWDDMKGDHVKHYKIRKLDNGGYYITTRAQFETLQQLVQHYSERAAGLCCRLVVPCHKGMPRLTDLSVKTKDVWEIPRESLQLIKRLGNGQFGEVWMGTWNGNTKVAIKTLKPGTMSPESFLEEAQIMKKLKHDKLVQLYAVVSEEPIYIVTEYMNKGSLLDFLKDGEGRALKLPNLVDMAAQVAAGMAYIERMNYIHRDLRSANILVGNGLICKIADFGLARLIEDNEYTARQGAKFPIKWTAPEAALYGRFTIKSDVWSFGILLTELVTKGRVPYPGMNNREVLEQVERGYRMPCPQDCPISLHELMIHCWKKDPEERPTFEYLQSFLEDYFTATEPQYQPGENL

[6] = target: T4, Tyrosine-protein kinase Yes (Homo sapiens, UniProt P07947); conditions: 100 nM
Description: Inhibition of N-terminal 6His-tagged full length recombinant human YES expressed in baculovirus expression system at 100 nM

[7] = target: 5-hydroxytryptamine receptor 2B (Homo sapiens) (UniProt P41595); assay: Activity at 5HT2B receptor (unknown origin) at <1 uM
[8] = target: PAK2 (serine/threonine-protein kinase PAK 2) (Homo sapiens, UniProt Q13177); assay: Inhibition of N-terminal 6His-tagged recombinant human PAK2 (3-end residues) expressed in expressed in Escherichia coli at 100 nM
Chain of PAK2 (serine/threonine-protein kinase PAK 2) (Q13177 whole entry): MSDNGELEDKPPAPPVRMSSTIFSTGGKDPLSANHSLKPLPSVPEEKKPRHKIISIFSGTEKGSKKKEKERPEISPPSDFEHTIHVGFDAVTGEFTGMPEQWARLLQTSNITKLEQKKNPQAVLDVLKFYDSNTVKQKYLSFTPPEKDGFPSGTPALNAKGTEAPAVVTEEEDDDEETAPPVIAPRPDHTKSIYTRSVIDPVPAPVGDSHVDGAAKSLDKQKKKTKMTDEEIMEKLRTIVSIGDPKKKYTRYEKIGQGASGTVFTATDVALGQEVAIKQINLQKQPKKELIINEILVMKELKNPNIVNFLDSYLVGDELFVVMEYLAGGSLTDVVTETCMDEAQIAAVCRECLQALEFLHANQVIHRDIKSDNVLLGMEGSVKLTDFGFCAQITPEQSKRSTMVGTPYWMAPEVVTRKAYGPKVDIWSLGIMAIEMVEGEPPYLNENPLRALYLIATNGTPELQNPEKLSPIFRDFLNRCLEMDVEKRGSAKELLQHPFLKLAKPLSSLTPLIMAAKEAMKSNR

[9] = target: T2, Protein kinase C theta type; assay: Inhibition of C-terminal 6His-tagged recombinant full length human PKCtheta expressed in fall armyworm Sf21 cells
Target sequence in this assay (Q04759 whole entry): as the sequence (Q04759 whole entry, looked up) above

[10] = target: T5, 5-hydroxytryptamine receptor 2C (Homo sapiens) (UniProt P28335); assay: Activity at 5HT2C receptor (unknown origin) at <1 uM
T5 sequence (whole entry): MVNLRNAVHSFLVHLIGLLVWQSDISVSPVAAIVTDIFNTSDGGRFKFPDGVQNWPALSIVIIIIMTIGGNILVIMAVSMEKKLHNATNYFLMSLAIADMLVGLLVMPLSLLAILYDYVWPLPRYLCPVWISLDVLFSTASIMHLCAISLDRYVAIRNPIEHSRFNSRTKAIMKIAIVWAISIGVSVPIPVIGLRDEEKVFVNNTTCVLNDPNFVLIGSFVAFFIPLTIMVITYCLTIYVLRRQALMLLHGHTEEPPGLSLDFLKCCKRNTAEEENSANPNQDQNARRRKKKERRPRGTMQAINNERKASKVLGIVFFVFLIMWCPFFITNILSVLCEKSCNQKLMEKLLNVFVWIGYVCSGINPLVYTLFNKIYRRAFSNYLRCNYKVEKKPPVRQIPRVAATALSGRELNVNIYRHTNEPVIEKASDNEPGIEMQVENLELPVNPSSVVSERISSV

[11] = target: T6, Tyrosine-protein kinase Lyn (Homo sapiens, UniProt P07948); assay: Inhibition of N-terminal his6-tagged recombinant full-length human LYN expressed in baculovirus infected Sf21 cells
[12] = target: T7, Alpha-1B adrenergic receptor (Homo sapiens) (UniProt P35368); assay: Activity at alpha-1B adrenergic receptor (unknown origin) at <1 uM
T7 sequence (whole entry): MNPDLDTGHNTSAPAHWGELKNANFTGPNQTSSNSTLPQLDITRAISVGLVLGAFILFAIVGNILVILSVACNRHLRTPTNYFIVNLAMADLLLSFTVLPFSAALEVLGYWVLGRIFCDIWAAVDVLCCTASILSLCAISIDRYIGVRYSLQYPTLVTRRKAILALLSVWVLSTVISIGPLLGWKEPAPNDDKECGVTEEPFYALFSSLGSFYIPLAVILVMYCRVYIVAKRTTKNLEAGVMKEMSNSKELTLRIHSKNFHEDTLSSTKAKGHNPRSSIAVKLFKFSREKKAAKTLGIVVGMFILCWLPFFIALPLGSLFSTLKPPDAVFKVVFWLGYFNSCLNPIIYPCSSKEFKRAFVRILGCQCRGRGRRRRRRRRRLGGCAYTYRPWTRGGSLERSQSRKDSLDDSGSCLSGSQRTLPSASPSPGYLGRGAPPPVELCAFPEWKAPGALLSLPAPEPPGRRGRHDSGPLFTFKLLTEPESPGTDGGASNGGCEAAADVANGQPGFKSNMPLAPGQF

[13] = target: T8, Muscarinic acetylcholine receptor M5 (Homo sapiens) (UniProt P08912); assay: Activity at muscarinic acetylcholine receptor M5 (unknown origin) at <1 uM
T8 sequence (whole entry): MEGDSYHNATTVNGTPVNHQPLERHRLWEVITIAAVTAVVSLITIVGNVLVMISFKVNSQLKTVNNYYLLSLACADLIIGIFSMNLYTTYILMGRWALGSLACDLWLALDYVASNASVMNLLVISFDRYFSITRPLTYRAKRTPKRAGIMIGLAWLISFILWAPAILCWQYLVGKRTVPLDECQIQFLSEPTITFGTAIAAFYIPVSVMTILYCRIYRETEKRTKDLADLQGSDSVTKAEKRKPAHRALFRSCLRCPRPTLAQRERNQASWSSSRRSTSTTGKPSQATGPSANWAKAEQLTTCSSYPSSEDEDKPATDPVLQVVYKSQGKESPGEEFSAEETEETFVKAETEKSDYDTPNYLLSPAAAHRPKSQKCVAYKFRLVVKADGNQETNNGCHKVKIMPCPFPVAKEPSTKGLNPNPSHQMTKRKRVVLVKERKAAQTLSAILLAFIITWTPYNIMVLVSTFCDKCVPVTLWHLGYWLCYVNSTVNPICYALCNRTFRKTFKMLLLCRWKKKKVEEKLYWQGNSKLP

[14] = target: T9, Serine/threonine-protein kinase PAK 2 (Homo sapiens, UniProt Q13177)
T9 sequence (Q13177 whole entry): as the sequence (Q13177 whole entry) above
Description: Binding affinity to human PAK2 (P151 to R525 residues) expressed in bacterial expression system by KINOMEscan assay

[15] = target: T10, Muscarinic acetylcholine receptor M2 (Homo sapiens) (UniProt P08172); assay: Activity at muscarinic acetylcholine receptor M2 (unknown origin) at <1 uM
T10 sequence (whole entry): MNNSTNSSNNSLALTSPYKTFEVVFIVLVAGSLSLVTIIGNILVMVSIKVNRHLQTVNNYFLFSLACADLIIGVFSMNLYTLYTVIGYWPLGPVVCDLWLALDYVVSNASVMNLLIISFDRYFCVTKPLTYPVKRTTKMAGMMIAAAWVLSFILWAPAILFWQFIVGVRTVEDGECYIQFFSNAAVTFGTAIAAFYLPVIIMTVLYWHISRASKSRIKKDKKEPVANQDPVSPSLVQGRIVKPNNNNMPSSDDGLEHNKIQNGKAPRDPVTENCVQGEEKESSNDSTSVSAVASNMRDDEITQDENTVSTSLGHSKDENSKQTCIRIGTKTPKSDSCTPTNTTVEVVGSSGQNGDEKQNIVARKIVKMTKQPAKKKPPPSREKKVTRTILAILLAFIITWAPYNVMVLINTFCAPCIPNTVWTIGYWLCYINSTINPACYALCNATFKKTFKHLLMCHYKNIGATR

[16] = target: T3, Tyrosine-protein kinase Fyn; assay: Inhibition of N-Terminal His6-tagged full length recombinant human FYN expressed in baculovirus expression system
[17] = target: T1, Tyrosine-protein kinase Lck; conditions: Sf21, 100 nM
Target sequence in this assay (P06239 2-509 limits assumed): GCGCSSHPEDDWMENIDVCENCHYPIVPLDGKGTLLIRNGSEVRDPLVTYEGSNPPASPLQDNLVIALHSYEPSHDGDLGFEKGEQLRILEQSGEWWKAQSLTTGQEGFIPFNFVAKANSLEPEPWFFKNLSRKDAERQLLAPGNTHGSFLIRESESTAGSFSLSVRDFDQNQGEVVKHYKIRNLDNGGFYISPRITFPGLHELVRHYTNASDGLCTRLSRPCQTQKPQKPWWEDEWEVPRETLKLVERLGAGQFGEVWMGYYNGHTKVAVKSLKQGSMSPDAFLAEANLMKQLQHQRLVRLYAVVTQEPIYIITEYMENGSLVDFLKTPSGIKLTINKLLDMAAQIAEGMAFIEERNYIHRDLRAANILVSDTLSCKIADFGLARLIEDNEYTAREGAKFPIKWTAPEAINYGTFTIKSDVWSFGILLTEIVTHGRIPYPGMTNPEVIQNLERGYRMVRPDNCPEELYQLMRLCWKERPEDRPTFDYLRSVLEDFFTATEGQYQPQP
Description: Inhibition of N-terminal 6His-tagged full length recombinant human LCK expressed in baculovirus infected Sf21 cells at 100 nM

[18] = target: D(3) dopamine receptor (Homo sapiens) (UniProt P35462); assay: Activity at dopamine receptor D3 (unknown origin) at <1 uM
Chain of D(3) dopamine receptor (Homo sapiens) (P35462 whole entry): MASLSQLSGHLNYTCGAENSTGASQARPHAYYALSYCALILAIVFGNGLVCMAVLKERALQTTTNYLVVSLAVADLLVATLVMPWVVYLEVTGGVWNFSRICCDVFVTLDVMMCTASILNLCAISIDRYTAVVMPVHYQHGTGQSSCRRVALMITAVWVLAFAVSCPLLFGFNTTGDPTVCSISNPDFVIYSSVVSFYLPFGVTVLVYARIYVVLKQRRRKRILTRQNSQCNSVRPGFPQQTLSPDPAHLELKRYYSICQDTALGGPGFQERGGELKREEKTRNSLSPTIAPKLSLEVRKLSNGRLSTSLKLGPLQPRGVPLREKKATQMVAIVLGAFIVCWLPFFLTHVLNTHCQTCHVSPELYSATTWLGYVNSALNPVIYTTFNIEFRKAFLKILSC

[19] = target: Sodium-dependent dopamine transporter (Homo sapiens) (UniProt Q01959); assay: Activity at dopamine transporter (unknown origin) at <1 uM
Chain of Sodium-dependent dopamine transporter (Homo sapiens) (Q01959 whole entry): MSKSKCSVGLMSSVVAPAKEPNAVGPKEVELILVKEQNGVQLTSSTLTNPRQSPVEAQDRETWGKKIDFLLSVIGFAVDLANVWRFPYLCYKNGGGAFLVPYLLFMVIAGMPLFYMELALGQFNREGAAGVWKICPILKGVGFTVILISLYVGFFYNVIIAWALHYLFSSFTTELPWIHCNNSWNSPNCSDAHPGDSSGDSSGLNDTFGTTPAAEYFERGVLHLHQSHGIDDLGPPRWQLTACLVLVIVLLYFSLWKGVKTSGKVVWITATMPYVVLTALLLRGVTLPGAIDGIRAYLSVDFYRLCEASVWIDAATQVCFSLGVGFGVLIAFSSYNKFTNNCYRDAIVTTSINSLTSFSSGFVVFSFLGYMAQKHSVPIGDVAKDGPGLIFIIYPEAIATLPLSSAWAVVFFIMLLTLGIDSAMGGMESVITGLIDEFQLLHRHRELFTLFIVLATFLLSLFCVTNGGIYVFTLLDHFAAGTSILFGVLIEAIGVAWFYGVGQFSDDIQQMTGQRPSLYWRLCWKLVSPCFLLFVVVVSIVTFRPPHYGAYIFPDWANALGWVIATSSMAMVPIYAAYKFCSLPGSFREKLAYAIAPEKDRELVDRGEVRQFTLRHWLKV

[20] = target: T4, Tyrosine-protein kinase Yes; assay: Inhibition of N-terminal 6His-tagged full length recombinant human YES expressed in baculovirus expression system
[21] = target: T9, Serine/threonine-protein kinase PAK 2; remark: listed apart in the source
Description: Inhibition of N-terminal 6His-tagged recombinant human PAK2 (3-end residues) expressed in Escherichia coli

[22] = target: T6, Tyrosine-protein kinase Lyn; assay: Inhibition of N-terminal his6-tagged recombinant full-length human LYN expressed in baculovirus infected Sf21 cells at 100 nM
Target sequence in this assay (P07948 2-512 limits assumed): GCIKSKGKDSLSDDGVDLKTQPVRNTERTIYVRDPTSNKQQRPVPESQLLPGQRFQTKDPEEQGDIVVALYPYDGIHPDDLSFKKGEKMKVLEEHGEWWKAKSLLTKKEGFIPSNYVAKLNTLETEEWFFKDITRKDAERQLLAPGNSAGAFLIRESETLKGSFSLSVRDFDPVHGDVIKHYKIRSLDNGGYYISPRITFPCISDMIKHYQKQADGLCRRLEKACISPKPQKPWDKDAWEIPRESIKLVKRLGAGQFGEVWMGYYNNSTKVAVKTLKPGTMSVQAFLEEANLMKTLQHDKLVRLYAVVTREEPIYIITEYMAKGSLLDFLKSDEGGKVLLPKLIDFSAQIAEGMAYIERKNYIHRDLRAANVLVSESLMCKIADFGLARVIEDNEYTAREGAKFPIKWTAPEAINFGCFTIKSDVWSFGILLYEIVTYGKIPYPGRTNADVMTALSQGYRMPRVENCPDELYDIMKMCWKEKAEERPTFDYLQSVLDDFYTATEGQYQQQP

[23] = target: T11, Proto-oncogene tyrosine-protein kinase Src (Homo sapiens, UniProt P12931); assay: Inhibition of N-terminal His6-tagged recombinant human Src (1 to 530 residues) expressed in baculovirus infected sf21 cells
T11 sequence (P12931 2-536 limits assumed): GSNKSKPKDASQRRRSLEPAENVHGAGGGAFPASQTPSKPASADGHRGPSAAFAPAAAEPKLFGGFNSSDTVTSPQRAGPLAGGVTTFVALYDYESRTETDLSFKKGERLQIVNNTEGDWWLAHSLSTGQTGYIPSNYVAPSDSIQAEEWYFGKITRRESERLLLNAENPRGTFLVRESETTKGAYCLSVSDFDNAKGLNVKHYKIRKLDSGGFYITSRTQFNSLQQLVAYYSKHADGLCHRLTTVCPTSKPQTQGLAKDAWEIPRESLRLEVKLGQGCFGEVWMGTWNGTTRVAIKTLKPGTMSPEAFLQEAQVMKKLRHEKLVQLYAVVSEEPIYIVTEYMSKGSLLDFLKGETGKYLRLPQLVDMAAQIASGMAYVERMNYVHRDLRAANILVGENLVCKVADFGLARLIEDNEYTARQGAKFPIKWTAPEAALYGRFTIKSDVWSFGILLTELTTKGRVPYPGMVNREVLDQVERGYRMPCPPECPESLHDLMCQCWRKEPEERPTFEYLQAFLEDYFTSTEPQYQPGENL

[24] = target: T11, Proto-oncogene tyrosine-protein kinase Src; assay: Inhibition of N-terminal His6-tagged recombinant human Src (1 to 530 residues) expressed in baculovirus infected sf21 cells at 100 nM
[25] = target: T12, Alpha-2C adrenergic receptor (Homo sapiens) (UniProt P18825); assay: Activity at alpha-2C adrenergic receptor (unknown origin) at <1 uM
T12 sequence (whole entry): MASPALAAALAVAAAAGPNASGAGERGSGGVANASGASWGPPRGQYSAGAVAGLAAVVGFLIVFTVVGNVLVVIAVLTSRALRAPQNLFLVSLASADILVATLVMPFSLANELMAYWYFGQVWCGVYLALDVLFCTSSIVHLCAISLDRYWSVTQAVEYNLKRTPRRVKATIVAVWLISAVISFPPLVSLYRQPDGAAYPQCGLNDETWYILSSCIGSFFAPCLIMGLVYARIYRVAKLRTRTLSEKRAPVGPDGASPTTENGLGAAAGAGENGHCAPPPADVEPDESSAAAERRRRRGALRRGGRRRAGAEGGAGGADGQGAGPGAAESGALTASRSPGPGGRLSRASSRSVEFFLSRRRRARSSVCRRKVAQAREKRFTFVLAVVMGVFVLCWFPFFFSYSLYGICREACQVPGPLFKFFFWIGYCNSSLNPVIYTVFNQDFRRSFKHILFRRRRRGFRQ

[26] = target: T13, Muscarinic acetylcholine receptor M1 (Homo sapiens) (UniProt P11229); assay: Activity at muscarinic acetylcholine receptor M1 (unknown origin) at <1 uM
T13 sequence (whole entry): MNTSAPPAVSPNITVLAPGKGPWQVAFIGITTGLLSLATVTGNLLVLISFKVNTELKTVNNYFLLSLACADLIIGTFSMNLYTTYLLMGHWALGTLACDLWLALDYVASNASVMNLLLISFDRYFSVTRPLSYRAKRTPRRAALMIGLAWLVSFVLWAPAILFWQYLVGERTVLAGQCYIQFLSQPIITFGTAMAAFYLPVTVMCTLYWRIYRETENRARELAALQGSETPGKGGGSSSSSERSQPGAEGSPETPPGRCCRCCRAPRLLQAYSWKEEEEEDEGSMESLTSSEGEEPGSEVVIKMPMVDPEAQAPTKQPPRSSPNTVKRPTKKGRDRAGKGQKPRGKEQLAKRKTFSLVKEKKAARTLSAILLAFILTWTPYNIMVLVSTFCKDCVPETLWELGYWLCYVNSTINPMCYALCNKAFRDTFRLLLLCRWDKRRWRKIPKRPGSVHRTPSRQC

Cc1ccc(CO)cc1N(C)c1nc(Nc2ccc(N3CCN(C)CC3)c(S(C)(=O)=O)c2)ncc1F
logD [1]: 2.6

Cc1cc(C)c(N(C)c2nc(Nc3ccc(N4CCN(C)CC4)cc3)ncc2F)cc1CO
logD [1]: 3

CCS(=O)(=O)c1cc(Nc2ncc(F)c(N(C)c3cc(CO)c(C)cc3C)n2)ccc1N1CCN(C)CC1
logD [1]: 3.8

CCN(c1cc(CO)ccc1C)c1nc(Nc2ccc(N3CCN(C)CC3)c(S(=O)(=O)CC)c2)ncc1F
logD [1]: 3.5

CN(c1cccc(CO)c1)c1nc(Nc2cc(N3CCOCC3)cc(S(C)(=O)=O)c2)ncc1F
logD [1]: 3

COCc1ccc(C)c(N(C)c2nc(Nc3cc(N4CCOCC4)cc(S(C)(=O)=O)c3)ncc2F)c1
logD [1]: 3.7

CCS(=O)(=O)c1cc(Nc2ncc(F)c(N(Cc3ccccc3C#N)c3cc(CO)ccc3C)n2)ccc1N1CCN(C)CC1
IC50 [2]: 36 nM
Activity (Homo sapiens): Active
hepatocyte CLint [3]: 30 µL/min/1e6 cells
inhibition [4]: 91%
inhibition [5]: 87%
inhibition [6]: 95%
logD [1]: 3.7
Activity [7]: Active
inhibition at 0.1 µM [8]: 98%
IC50 [9]: 7 nM
Activity [10]: Active
IC50 [11]: 31 nM
Activity [12]: Active
Activity [13]: Active
Kd [14]: 0.32 nM
Activity [15]: Active
IC50 [16]: 45 nM
inhibition [17]: 83%
Activity [18]: Active
Activity [19]: Active
IC50 [20]: 4 nM
IC50 [21]: 6 nM
inhibition [22]: 91%
IC50 [23]: 93 nM
inhibition [24]: 86%
Activity [25]: Active
Activity [26]: Active

Cc1cc(C)c(N(C)c2nc(Nc3cc(N4CCOCC4)cc(S(C)(=O)=O)c3)ncc2F)cc1CO
logD [1]: 3.8
